Measured values: ChEMBL document CHEMBL3885861, “Open TG-GATES”

Organism: Rattus norvegicus
Assay: Open TG-GATES - Regimen: Daily Repeat
Format: toxicity, organism-based, Sprague-Dawley
Set-up: regimen Daily Repeat, gender Male, age 6 weeks
Details: in vivo, po, 15 mg/kg, route gavage, dose level Middle; for APTT / Bas / Eos / Fbg / Hb / Ht / Lym / MCH / MCHC / MCV / Mono / Neu / PT / Plat / RBC / Ret / WBC: tissue Blood; for KIDNEY_L / KIDNEY_R / KIDNEY_TOTAL: tissue Kidney; for LIVER: tissue Liver; for A/G / ALP / ALT / AST / BUN / CRE / Ca / Cl / DBIL / GLC / IP / K / LDH / Na / PL / RALB / TBIL / TC / TG / TP / gamma-GTP: tissue Plasma

Structure (SMILES): CC1=C(CC(=O)O)c2cc(F)ccc2/C1=C\c1ccc([S+](C)[O-])cc1 (configuration not stated)
- TERMINAL_BW (72 h, time 3 day): 235.3 g
- APTT (72 h, time 3 day): 17.2 s
- Bas (72 h, time 3 day): 0%
- Eos (72 h, time 3 day): 1%
- Fbg (72 h, time 3 day): 309 mg/dL
- Hb (72 h, time 3 day): 14.2 g/dL
- Ht (72 h, time 3 day): 43%
- Lym (72 h, time 3 day): 75.8%
- MCH (72 h, time 3 day): 21.2 pg
- MCHC (72 h, time 3 day): 33%
- MCV (72 h, time 3 day): 64.3 fL
- Mono (72 h, time 3 day): 2.6%
- Neu (72 h, time 3 day): 20%
- PT (72 h, time 3 day): 13.7 s
- Plat (72 h, time 3 day): 120.1 x10_4/uL
- RBC (72 h, time 3 day): 671.2 x10_4/ul
- Ret (72 h, time 3 day): 7.1%
- WBC (72 h, time 3 day): 90 x10_2/uL
- KIDNEY_L (72 h, time 3 day): 1 g
- KIDNEY_R (72 h, time 3 day): 1 g
- KIDNEY_TOTAL (72 h, time 3 day): 2 g
- LIVER (72 h, time 3 day): 11.3 g
- A/G (72 h, time 3 day): 0.9
- ALP (72 h, time 3 day): 1549.6 IU/L
- ALT (72 h, time 3 day): 44.2 IU/L
- AST (72 h, time 3 day): 72.4 IU/L
- BUN (72 h, time 3 day): 15.8 mg/dL
- CRE (72 h, time 3 day): 0.2 mg/dL
- Ca (72 h, time 3 day): 11.1 mg/dL
- Cl (72 h, time 3 day): 106 meq/L
- DBIL (72 h, time 3 day): 0.012 mg/dL
- GLC (72 h, time 3 day): 185.2 mg/dL
- IP (72 h, time 3 day): 7.3 mg/dL
- K (72 h, time 3 day): 4 meq/L
- LDH (72 h, time 3 day): 93.8 IU/L
- Na (72 h, time 3 day): 142.8 meq/L
- PL (72 h, time 3 day): 159 mg/dL
- RALB (72 h, time 3 day): 2.7 g/dL
- TBIL (72 h, time 3 day): 0.018 mg/dL
- TC (72 h, time 3 day): 85.2 mg/dL
- TG (72 h, time 3 day): 98.6 mg/dL
- TP (72 h, time 3 day): 5.6 g/dL
- gamma-GTP (72 h, time 3 day): 1 IU/L
- TERMINAL_BW ([…], time 7 day): 268.9 g
- TERMINAL_BW ([…], time 14 day): 338.3 g
- TERMINAL_BW ([…], time 28 day): 411.4 g
- APTT ([…], time 7 day): 17.1 s
- Bas ([…], time 7 day): 0%
- Eos ([…], time 7 day): 1%
- Fbg ([…], time 7 day): 295.2 mg/dL
- Hb ([…], time 7 day): 14.4 g/dL
- Ht ([…], time 7 day): 42.6%
- Lym ([…], time 7 day): 77.6%
- MCH ([…], time 7 day): 21.2 pg
- MCHC ([…], time 7 day): 33.8%
- MCV ([…], time 7 day): 62.6 fL
- Mono ([…], time 7 day): 2.4%
- Neu ([…], time 7 day): 18.8%
- PT ([…], time 7 day): 13.5 s
- Plat ([…], time 7 day): 137.1 x10_4/uL
- RBC ([…], time 7 day): 681.2 x10_4/ul
- Ret ([…], time 7 day): 6.1%
- WBC ([…], time 7 day): 102.7 x10_2/uL
- APTT ([…], time 14 day): 18 s
- Bas ([…], time 14 day): 0%
- Eos ([…], time 14 day): 1%
- Fbg ([…], time 14 day): 325.2 mg/dL
- Hb ([…], time 14 day): 14.6 g/dL
- Ht ([…], time 14 day): 42.9%
- Lym ([…], time 14 day): 73.2%
- MCH ([…], time 14 day): 20.5 pg
- MCHC ([…], time 14 day): 34.1%
- MCV ([…], time 14 day): 60 fL
- Mono ([…], time 14 day): 2.2%
- Neu ([…], time 14 day): 23%
- PT ([…], time 14 day): 13.7 s
- Plat ([…], time 14 day): 131.8 x10_4/uL
- RBC ([…], time 14 day): 715.4 x10_4/ul
- Ret ([…], time 14 day): 4.6%
- WBC ([…], time 14 day): 104.2 x10_2/uL
- APTT ([…], time 28 day): 20.6 s
- Bas ([…], time 28 day): 0%
- Eos ([…], time 28 day): 0.8%
- Fbg ([…], time 28 day): 263.6 mg/dL
- Hb ([…], time 28 day): 14.9 g/dL
- Ht ([…], time 28 day): 45.8%
- Lym ([…], time 28 day): 76%
- MCH ([…], time 28 day): 18.9 pg
- MCHC ([…], time 28 day): 32.6%
- MCV ([…], time 28 day): 58 fL
- Mono ([…], time 28 day): 2%
- Neu ([…], time 28 day): 20.8%
- PT ([…], time 28 day): 12.6 s
- Plat ([…], time 28 day): 111.8 x10_4/uL
- RBC ([…], time 28 day): 792.6 x10_4/ul
- Ret ([…], time 28 day): 3.7%
- WBC ([…], time 28 day): 112.4 x10_2/uL
- KIDNEY_L ([…], time 7 day): 1.2 g
- KIDNEY_R ([…], time 7 day): 1.1 g
- KIDNEY_TOTAL ([…], time 7 day): 2.3 g
- KIDNEY_L ([…], time 14 day): 1.3 g
- KIDNEY_R ([…], time 14 day): 1.2 g
- KIDNEY_TOTAL ([…], time 14 day): 2.5 g
- KIDNEY_L ([…], time 28 day): 1.4 g
- KIDNEY_R ([…], time 28 day): 1.4 g
- KIDNEY_TOTAL ([…], time 28 day): 2.8 g
- LIVER ([…], time 7 day): 12.6 g
- LIVER ([…], time 14 day): 15.2 g
- LIVER ([…], time 28 day): 17.1 g
- A/G ([…], time 7 day): 0.9
- ALP ([…], time 7 day): 1603.8 IU/L
- ALT ([…], time 7 day): 41.2 IU/L
- AST ([…], time 7 day): 66.8 IU/L
- BUN ([…], time 7 day): 17.2 mg/dL
- CRE ([…], time 7 day): 0.2 mg/dL
- Ca ([…], time 7 day): 11 mg/dL
- Cl ([…], time 7 day): 104 meq/L
- DBIL ([…], time 7 day): 0.016 mg/dL
- GLC ([…], time 7 day): 183 mg/dL
- IP ([…], time 7 day): 7.3 mg/dL
- K ([…], time 7 day): 4.3 meq/L
- LDH ([…], time 7 day): 87.4 IU/L
- Na ([…], time 7 day): 141 meq/L
- PL ([…], time 7 day): 187.6 mg/dL
- RALB ([…], time 7 day): 2.8 g/dL
- TBIL ([…], time 7 day): 0.016 mg/dL
- TC ([…], time 7 day): 91.6 mg/dL
- TG ([…], time 7 day): 171.6 mg/dL
- TP ([…], time 7 day): 5.9 g/dL
- gamma-GTP ([…], time 7 day): 1 IU/L
- A/G ([…], time 14 day): 0.9
- ALP ([…], time 14 day): 1475.4 IU/L
- ALT ([…], time 14 day): 42.6 IU/L
- AST ([…], time 14 day): 65.6 IU/L
- BUN ([…], time 14 day): 17.4 mg/dL
- CRE ([…], time 14 day): 0.3 mg/dL
- Ca ([…], time 14 day): 10.9 mg/dL
- Cl ([…], time 14 day): 105.6 meq/L
- DBIL ([…], time 14 day): 0.018 mg/dL
- GLC ([…], time 14 day): 183 mg/dL
- IP ([…], time 14 day): 6.8 mg/dL
- K ([…], time 14 day): 3.8 meq/L
- LDH ([…], time 14 day): 75.4 IU/L
- Na ([…], time 14 day): 143.4 meq/L
- PL ([…], time 14 day): 173.4 mg/dL
- RALB ([…], time 14 day): 2.8 g/dL
- TBIL ([…], time 14 day): 0.042 mg/dL
- TC ([…], time 14 day): 81.4 mg/dL
- TG ([…], time 14 day): 191 mg/dL
- TP ([…], time 14 day): 6 g/dL
- gamma-GTP ([…], time 14 day): 1 IU/L
- A/G ([…], time 28 day): 0.8
- ALP ([…], time 28 day): 1137.2 IU/L
- ALT ([…], time 28 day): 35.8 IU/L
- AST ([…], time 28 day): 62 IU/L
- BUN ([…], time 28 day): 18.2 mg/dL
- CRE ([…], time 28 day): 0.3 mg/dL
- Ca ([…], time 28 day): 10.7 mg/dL
- Cl ([…], time 28 day): 103.8 meq/L
- DBIL ([…], time 28 day): 0.008 mg/dL
- GLC ([…], time 28 day): 178.4 mg/dL
- IP ([…], time 28 day): 6.9 mg/dL
- K ([…], time 28 day): 3.8 meq/L
- LDH ([…], time 28 day): 64.6 IU/L
- Na ([…], time 28 day): 142.8 meq/L
- PL ([…], time 28 day): 153.4 mg/dL
- RALB ([…], time 28 day): 2.8 g/dL
- TBIL ([…], time 28 day): 0.076 mg/dL
- TC ([…], time 28 day): 74.8 mg/dL
- TG ([…], time 28 day): 162.8 mg/dL
- TP ([…], time 28 day): 6.2 g/dL
- gamma-GTP ([…], time 28 day): 1 IU/L
